Reference: publication PMC3030585, “Functional Magnetic Resonance Imaging Reveals Different Neural Substrates for the Effects of Orexin-1 and Orexin-2 Receptor Antagonists” (PLoS ONE, 2011)

Tests used:
orexin-2 receptor (OX2R) = molecular target: T1, orexin-2 receptor (OX2R) (Rattus norvegicus, UniProt P56719); assay: antagonism of Orexin-A-induced [3H]inositol phosphates accumulation in RBL cells stably expressing rat OX2R (Schild analysis); type: cell-based
T1 construct: gene Hcrtr2
T1 sequence (P56719 1-460): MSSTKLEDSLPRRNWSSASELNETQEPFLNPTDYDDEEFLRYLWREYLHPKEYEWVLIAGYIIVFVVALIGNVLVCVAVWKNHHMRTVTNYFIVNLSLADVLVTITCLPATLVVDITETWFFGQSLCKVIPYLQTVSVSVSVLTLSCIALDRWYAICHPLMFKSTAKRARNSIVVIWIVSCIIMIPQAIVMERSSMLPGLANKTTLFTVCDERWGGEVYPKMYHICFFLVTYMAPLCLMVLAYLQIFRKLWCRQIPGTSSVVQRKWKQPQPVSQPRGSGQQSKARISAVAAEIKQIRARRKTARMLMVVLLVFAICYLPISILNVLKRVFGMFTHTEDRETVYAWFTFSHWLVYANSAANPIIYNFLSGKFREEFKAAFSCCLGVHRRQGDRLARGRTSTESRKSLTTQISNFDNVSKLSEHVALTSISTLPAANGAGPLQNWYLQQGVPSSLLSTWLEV

orexin-1 receptor (OX1R) = molecular target: T2, orexin-1 receptor (OX1R) (Rattus norvegicus, UniProt P56718); assay: antagonism of Orexin-A-induced [3H]inositol phosphates accumulation in RBL cells stably expressing rat OX1R; type: cell-based
T2 construct: gene Hcrtr1
T2 sequence (P56718 1-416): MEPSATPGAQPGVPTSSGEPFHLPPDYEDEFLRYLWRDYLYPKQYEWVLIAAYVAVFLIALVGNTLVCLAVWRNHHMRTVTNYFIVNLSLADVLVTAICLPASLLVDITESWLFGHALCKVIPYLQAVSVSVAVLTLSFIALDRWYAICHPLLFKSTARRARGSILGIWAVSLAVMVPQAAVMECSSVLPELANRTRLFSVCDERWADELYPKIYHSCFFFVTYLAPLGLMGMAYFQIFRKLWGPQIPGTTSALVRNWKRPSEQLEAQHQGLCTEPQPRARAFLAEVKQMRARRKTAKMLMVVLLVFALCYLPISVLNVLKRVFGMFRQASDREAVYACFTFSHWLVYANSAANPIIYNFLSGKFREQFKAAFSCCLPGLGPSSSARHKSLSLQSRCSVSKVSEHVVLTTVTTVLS

κ-opioid (KOP) receptor = molecular target: T3, κ-opioid (KOP) receptor (Homo sapiens, UniProt P41145); assay: CEREP/Bioprint binding assay panel (human isoforms)
T3 construct: gene OPRK1
T3 sequence (P41145 whole entry, canonical isoform): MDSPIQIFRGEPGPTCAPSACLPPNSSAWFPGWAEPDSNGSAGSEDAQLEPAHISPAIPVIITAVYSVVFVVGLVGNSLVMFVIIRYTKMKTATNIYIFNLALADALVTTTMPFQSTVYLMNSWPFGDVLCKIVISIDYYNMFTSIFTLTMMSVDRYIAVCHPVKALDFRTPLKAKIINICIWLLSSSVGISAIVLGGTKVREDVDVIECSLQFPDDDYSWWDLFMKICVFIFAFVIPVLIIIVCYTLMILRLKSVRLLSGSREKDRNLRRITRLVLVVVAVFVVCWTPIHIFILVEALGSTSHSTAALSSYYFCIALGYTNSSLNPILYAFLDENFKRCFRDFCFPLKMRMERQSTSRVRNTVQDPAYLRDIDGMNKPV

Kb (orexin-2 receptor (OX2R)) [nM] | Kb (orexin-1 receptor (OX1R)) [nM] | Ki (κ-opioid (KOP) receptor) [nM] | SMILES
3.16 | 1260 |  | CC1(C)OC[C@H](NC(=O)Nc2ccc(Br)cc2Br)[C@H](c2ccccc2)O1 [JNJ10397049]
126 | 1.58 | 316 | COc1c(F)cccc1C(=O)N1C[C@@H](C)CC[C@H]1CNc1ccc(Br)cn1 [GSK1059865, 5-bromo-N-[(2S,5S)-1-(3-fluoro-2-methoxybenzoyl)-5-methylpiperidin-2-yl]methyl-pyridin-2-amine]
